Results as given in patent US20100322861A1, “ENGINEERED CELLS, IMAGING REPORT GENE/PROBE SYSTEMS, AND METHODS OF IMAGING” (priority 2007, published 2010).

Key:
[1] = system: cytolytic T cells expressing IL13 zetakine and HSV1-tk genes; assay: [18F]FHBG PET imaging of infused HSV1-tk expressing CTLs in a glioma patient; assay type: in vivo, human
Text: The CTLs were imaged with the PET reporter probe 9-[4-[^18F]Fluoro-3-(hydroxymethyl)butyl]guanine ([^18F]FHBG), because they constitutively express the PET reporter gene (PRG) HSV1-tk. (4) [^18F]FHBG is approved by the FDA as an investigational new drug (IND #61,880) for PET imaging at UCLA and Stanford University nuclear medicine clinics. UCLA's medical internal review board (M-IRB) has approved [^18F]FHBG PET imaging in normal volunteers, glioma patients and glioma patients who are enrolled in adoptive cellular gene therapy, when the infused cells express the PRG HSV1-tk. Stanford University's M-IRB has approved [^18F]FHBG PET imaging in glioma patients. COHNMC's M-IRB has approved referral of the patient's enrolled in the CTL therapy study for [^18F]FHBG PET imaging at UCLA.
254.62 MBq (6.88 mCi) [^18F]FHBG was injected through the other iv line (FDA limit 7 mCi). At approximately two-hours and fifteen minutes after [^18F]FHBG injection, the whole-body PET emission scan started from the patient's head to bottom, using an ECAT EXACT HR+PET scanner (CTI/Siemens, Inc., Knoxville, Tenn.). The whole-body scan consisted of 7 bed positions (7-minutes each). Three minute transmission scans followed each 7 minute emission scans. A two bed position head scan immediately followed completion of the whole-body scan. […] In addition, enhanced [^18F]FHBG accumulation was observed near the patient's corpus callosum. This indicates trafficking of infused CTLs to the remote corpus callosum tumor. The level of [^18F]FHBG accumulation is greater than what has been observed in control GBM patients who had tumor resections or intact tumors. Table 1 (FIG. 6) includes quantitative data of tumor to background ratios, comparing [^18F]FHBG accumulation levels of the CTL infused patient described in this example and control patients. Relative to similar controls, [^18F]FHBG accumulation is 2.6× higher in the patient's tumor resection site and 2.8× higher in the remote corpus callosum tumor site. […] Finally, a stereotactic biopsy of the left sided corpus callosum within a week of the [^18F]FHBG PET scan confirmed the presence of malignant disease infiltrated with CD8+ T cells.

[2] = in vivo, iv
Text: Two coronal slices are shown to illustrate activity within the liver, gall-bladder, intestines, kidneys and bladder, which are organs involved with [^18F]FHBG's clearance from the body.

HSV1-TK = assay: Cell culture uptake assay of [3H]Penciclovir into patient CTLs versus control Jurkat cells; assay type: cell-based, Herpes Simplex Virus 1; conditions: about 1 μCi/ml, control Jurkat cells not expressing HSV1-tk
Protocol: FIG. 5 is a bar graph that illustrates the uptake of [^3H]Penciclovir into the genetically engineered CTL clone that was infused into the patient and control Jurkat cells. The autologous patient CTLs were genetically engineered to constitutively express HSV1-tk. The control cells expressed Firefly luciferase instead of HSV1-tk. […] The symbol “*” indicates significant difference between uptake of [^3H]PCV into patient CTLs vs control cells at 4 hours (P<0.001).
The patient of the present example received a total of approximately 1×10^9 CTLs within a five-week period of direct infusions (one week break between weeks 2 and 4). It is both possible that these cells proliferate or some die once injected into the patient. The number of cells present within the tumor resection site and the intact tumor near the corpus callosum could not be specifically quantified. That would require a pharmacokinetic model ((2004) J Nucl Med 45, 1560-1570, which is incorporated herein by reference) for [^18F]FHBG at brain tumor sites and knowing HSV1-tk expression levels per CTL at imaging time. […] This low level of activity explains why [^18F]FHBG accumulation in CTL infusion sites and intact tumor is only 2-3× higher than background. In fact during uptake assay cultured cells were exposed to a relatively constant concentration of about 1 μCi/ml; whereas assuming homogeneous distribution of [^18F]FHBG in 6 liters of blood, the maximum concentration CTLs would have been exposed to within the first 1-2 minutes after injection would have been about 1 μCi/ml, but then there is a rapid decline in blood concentration of [^18F]FHBG within the first 20-40 minutes following it's injection. Despite that, [^18F]FHBG's ability to detect the CTLs may be due to the low background within the surrounding brain tissue and the presence of a large number of CTLs.

HSV1-tk expressing CTLs = assay: In vitro assays of Ganciclovir induced cell death of HSV1-tk expressing CTLs; assay type: cell-based, human; conditions: previous in vitro assays

## Nc1nc2c(ncn2CCC(CO)C[18F])c(=O)[nH]1 (stereo not drawn) [[^18F]FHBG, 9-[4-[^18F]fluoro-3-(hydroxymethyl)butyl]guanine]
[1]; CTL infused patient, non-resected tumor near corpus callosum, images approximately two hours after injection
  tumor 2/meninges [18F]FHBG activity ratio: 1.57
[1]; CTL infused patient, surgically resected tumor site, images approximately two hours after injection
  tumor 1/meninges [18F]FHBG activity ratio: 1.75
[1]; CTL infusion sites and intact tumor
  [18F]FHBG accumulation versus background: 2-3 ×
[1]; control patients (no CTLs)
  average intact tumor site to meninges [18F]FHBG activity ratio: 0.44
  average resected tumor site/meninges [18F]FHBG activity ratio: 0.86
[1]; patient's tumor resection site
  [18F]FHBG accumulation relative to similar controls: 2.6 ×
[1]; remote corpus callosum tumor site
  [18F]FHBG accumulation relative to similar controls: 2.8 ×
[1]; resection site and intact tumor, quantitative analysis
  [18F]FHBG accumulation in the CTL infused patient versus control patients: greater than two times higher
[2]; human
  clearance from tissues not involved in its clearance: clears very rapidly
[2]
  time of rapid decline in blood concentration following injection: 20 to 40 min

## [^3H]Penciclovir
HSV1-TK; 1 h
  [3H]PCV uptake into CTL clone relative to control cells: 2.7 ×
HSV1-TK; 1 h, listed as [^3H]PCV
  [3H]PCV uptake into CTL clone relative to control cells: approximately 3 ×
HSV1-TK; 4 h
  [3H]PCV uptake into CTL clone relative to control cells: 9.3 ×
HSV1-TK; 4 h, listed as [^3H]PCV
  [3H]PCV uptake into CTL clone relative to control cells: ~9 ×

## Nc1nc(O)c2ncn(COC(CO)CO)c2n1 [Ganciclovir]
HSV1-tk expressing CTLs
  Ganciclovir induced cell death of CTLs: susceptibility to Ganciclovir induced cell death
